Consider six compounds from US10702513B2, “Methods of treating pain and inducing analgesia” (NEW YORK UNIVERSITY, priority 2012, dated 2020).

The conditions of test [1]: cited from earlier work; for antidepressant effect on pain-induced depression: SNI model, Wang et al. 2011; for antidepressant effects: literature (Sekiguchi 2002; Quirk 2002).
Test [2] concerns SNI-treated rats. The settings on record: Wang et al. 2011; cited from earlier work.
Another test deals with GluA1. The settings on record: Li et al. 2010; cited from earlier work.
Test [3] addresses GluA2-lacking AMPA receptors (Homo sapiens, UniProt P42261). The settings on record: cited from earlier work; for potentiation of CPARs and calcium impermeable AMPA receptors: literature (Sekiguchi 2002; Quirk 2002).
For test [4], the system named is SNI-treated rats. Put plainly: Forced swim test, SNI model. The class given is in vivo, rat. The settings on record: 10 mg/kg intraperitoneal, vs DMSO. An excerpt:
(§1) The Spared Nerve Injury (SNI) surgery was previously described in detail (Wang et al. Anesthesiology 2011, 115: 812-821). Briefly, under Isoflurane anesthesia (1.5 to 2%), the skin on the lateral surface of the right thigh of rat was incised and a section made through the biceps femoris muscle to expose three branches of the sciatic nerve: sural, common peroneal and tibial nerves. The common peroneal and tibial nerves were tied with non-absorbent 5.0 silk sutures at the point of trifurcation. The nerves were then cut distal to the knot, and about 3 to 5 mm of the distal ends were removed. Muscle layer was then sutured close, while skin was stapled. Staples were removed prior to behavioral testing.
On the first session of the test, each animal was placed for fifteen minutes into a standard clear Porsolt chamber with water at 25° C. filled to 25 cm. Afterwards, the animal was taken out of the chamber, dried and put back in its home cage. 24 hours later, the animal was placed into the Porsolt chamber again under the same conditions for 5 min. Both sessions were videotaped, but only the second session was analyzed. Immobility was defined as a lack of movement of the hind paws lasting greater than 1 second. Two independent observers, examined and graded the total time of immobility for each rat, and the average grade was presented for each animal. FST was conducted 14 days after surgeries. […]

Test [5] has as its system SNI-treated rats. Kind of test: Cold hypersensitivity / allodynia (acetone), SNI model. The class given is in vivo, rat. An excerpt: Briefly, under Isoflurane anesthesia (1.5 to 2%), the skin on the lateral surface of the right thigh of rat was incised and a section made through the biceps femoris muscle to expose three branches of the sciatic nerve: sural, common peroneal and tibial nerves. The common peroneal and tibial nerves were tied with non-absorbent 5.0 silk sutures at the point of trifurcation. The nerves were then cut distal to the knot, and about 3 to 5 mm of the distal ends were removed. Muscle layer was then sutured close, while skin was stapled. Staples were removed prior to behavioral testing.
Animals were individually placed into plexiglass chambers as above and acclimated for 20 min. A drop of acetone was applied to the lateral plantar surface of the paws (in the distribution of the sural nerve). […] 0: no visible response or startle response lasting <0.5 second; 1: paw withdrawal lasting <5 seconds; 2: withdrawal lasting 5 to 10 seconds, +/− licking of the paws; 3: prolonged repetitive withdrawal lasting >10 s. Acetone was applied 5 times to each paw, and an average score was calculated.

The test system of test [6] is SNI-treated rats. Put plainly: Mechanical hypersensitivity / allodynia (von Frey filaments), SNI model. It is filed as in vivo, rat. The settings on record: for mechanical allodynia: 30 minutes after drug; for sensory hypersensitivity: administered directly into the NAc. The procedure: (§2) To block CPARs locally in the NAc, microcannulas were stereotactically implanted bilaterally into the NAc, a technique well established (Carr, et al., Neuroscience 2010; 165: 1074-86). The NAc has anatomically distinct core and shell regions, both of which are involved in mood regulation. […] Sensory hypersensitivity was measured using von Frey filaments (Wang, et al. Anesthesiology 2011; 115: 812-821), whereas locomotion tests were performed using standard protocols (Carr, et al., Pschopharmacology (Berl) 2009; 201: 495-506).
as §1
A traditional Dixon up-down method with von Frey filaments was used to measure mechanical allodynia (Wang et al. Anesthesiology 2011, 115: 812-821). In brief, rats were individually placed into plexiglass chambers over a mesh table and acclimated for 20 min before the onset of examination. Beginning with 2.55 g, von Frey filaments in a set with logarithmically incremental stiffness (0.45, 0.75, 1.20, 2.55, 4.40, 6.10, 10.50, 15.10 g) were applied to the lateral ⅓ of right paws (in the distribution of the sural nerve) of animals at least 14 days after SNI surgery, and observers were blinded to the test conditions (CX546 vs. DMSO treatments).

Test [7] concerns SNI-treated rats. Kind of test: Sucrose preference test (depression-like behavior) after intra-NAc administration, SNI model. It is filed as in vivo, rat.
From the text: After SNI, rats develop sensory hypersensitivity, as measured by increased withdrawal response to von Frey filaments (mechanical allodynia) and acetone (cold allodynia) (FIG. 5) (Wang, et al. Anesthesiology 2011; 115: 812-821). The sucrose preference test (SPT) and forced swim test (FST) are used to assess depression. Preference for sucrose over water is a normal hedonic response in rats, whereas a decreased sucrose preference on the SPT represents anhedonia, a typical feature of depression. […] Sham-operated rats only develop depression-like behavior in the immediate postoperative period (FIG. 6C), due to acute incisional pain. These experiments were repeated in the PI model, and sensory and depressive symptoms both develop within 24 hours after paw incision and resolve 7 days later (FIG. 7). Thus, in animal models both acute and chronic postoperative pain cause depressive behavior.
as §2

Where [8] appears, read: 10 mg/kg intraperitoneal, SNI rats, vs DMSO.
[9] abbreviates: administered directly into the NAc, SNI-treated rats, vs saline.
Where [10] appears, read: injected into NAc core, SNI-treated rats.

Each structure is given as a SMILES string. “Also recorded” adds a separate entry of the source. Like-named read-outs stand apart in the source and are kept apart here.

Chain of GluA2-lacking AMPA receptors (P42261 19-906): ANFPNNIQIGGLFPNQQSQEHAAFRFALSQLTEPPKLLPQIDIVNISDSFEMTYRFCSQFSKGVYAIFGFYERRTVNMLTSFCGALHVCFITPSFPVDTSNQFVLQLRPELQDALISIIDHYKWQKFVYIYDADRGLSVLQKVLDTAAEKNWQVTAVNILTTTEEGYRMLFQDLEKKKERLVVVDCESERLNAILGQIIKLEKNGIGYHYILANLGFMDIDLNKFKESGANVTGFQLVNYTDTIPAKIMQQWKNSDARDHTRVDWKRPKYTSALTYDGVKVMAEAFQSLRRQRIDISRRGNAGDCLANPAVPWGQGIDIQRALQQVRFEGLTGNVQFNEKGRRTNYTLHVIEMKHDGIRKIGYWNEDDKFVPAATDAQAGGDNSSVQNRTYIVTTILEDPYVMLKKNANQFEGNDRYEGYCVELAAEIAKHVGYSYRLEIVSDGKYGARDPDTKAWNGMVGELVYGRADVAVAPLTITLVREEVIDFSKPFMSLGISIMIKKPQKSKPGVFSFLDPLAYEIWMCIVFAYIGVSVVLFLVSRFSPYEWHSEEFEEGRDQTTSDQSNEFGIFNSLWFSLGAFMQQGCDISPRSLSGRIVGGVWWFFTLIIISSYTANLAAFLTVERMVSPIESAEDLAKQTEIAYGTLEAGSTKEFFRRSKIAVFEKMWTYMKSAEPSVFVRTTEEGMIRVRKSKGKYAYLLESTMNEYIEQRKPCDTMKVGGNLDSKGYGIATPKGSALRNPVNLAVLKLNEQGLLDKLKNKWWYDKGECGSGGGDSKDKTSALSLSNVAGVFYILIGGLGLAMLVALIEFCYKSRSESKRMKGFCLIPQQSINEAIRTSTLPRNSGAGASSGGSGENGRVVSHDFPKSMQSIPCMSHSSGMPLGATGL

For `CNC1(c2ccccc2Cl)CCCCC1=O` (stereo not shown) [ketamine], the figures for the “antidepressant effect on pain-induced depression” value in test [1] and in test [1] (listed as Ketamine) were “antidepressant properties in the SNI model” and “effectively treat pain-induced depression”, respectively. Besides, the sensory pain relief entry with SNI-treated rats [2] was “without exerting long lasting sensory pain relief”. Further, in the test on GluA1, the GluA1 levels result is given as “increase GluA1 levels”.
For the compound `NC(=O)COc1c(F)cc(SCCNS(=O)(=O)c2ccccc2)cc1F` [PEPA, 4-[2-(phenylsulfonylamino)ethylthio]-2,6-difluorophenoxyacetamide], in test [1], the antidepressant effects result is “antidepressant effects”. Also, in test [3], the “potentiation of CPARs and calcium impermeable AMPA receptors” value is “potentiate both CPARs and calcium impermeable AMPA receptors”.
Regarding `O=C(c1ccc2c(c1)OCCO2)N1CCCCC1` [CX546], in the test with SNI-treated rats [4], the “immobility on the forced swim test” value is given as “significantly decreases immobility; also recorded: improves performance on the forced swim test”. Also, in the test with SNI-treated rats [5] (setting [8]), the cold allodynia result was “relieves cold allodynia”. Besides, the analgesic effect result in the test on SNI-treated rats [6] (2.5 mg/kg, SNI rats, vs DMSO) is listed as “does not produce any statistically significant analgesic effect”. For the same compound, the mechanical allodynia entry in the test with SNI-treated rats [6] (5 mg/kg intraperitoneal, SNI rats, vs DMSO) is on record as “successfully relieves mechanical allodynia; also recorded: relieve mechanical allodynia”; with SNI-treated rats [6] (setting [8]) it was “successfully relieves mechanical allodynia; also recorded: relieve mechanical allodynia”.
As for `NCCCNCCCCNCCCNC(=O)Cc1cccc2ccccc12` [NASPM, 1-naphthyl acetyl spermine], the “sucrose preference (depression-like behavior)” value is recorded as “decrease in sucrose preference; also recorded: enhance depression-like behavior; also recorded: significant further decline in their already reduced sucrose preference; also recorded: reduces sucrose preference” in the test on SNI-treated rats [7] (setting [9]) and “did not show this depression-like behavioral response” in the test with SNI-treated rats [7] (injected into NAc core, sham-treated rats). Also, the “average difference in sucrose preference between NASPM and saline treatment” value in the test with SNI-treated rats [7] (based on preliminary data, used for power analysis, STD 0.15) is listed as 0.2. The cold hypersensitivity entry in the test with SNI-treated rats [5] (setting [10]) is “did not alter”. Also, in the test on SNI-treated rats [6] (SNI-treated rats), the sensory hypersensitivity entry is “does not alter”. The mechanical hypersensitivity result in the test on SNI-treated rats [6] (setting [10]) is “does not change mechanical hypersensitivity; also recorded: did not alter; also recorded: no effects on mechanical hypersensitivity”.
For `O=C1CCCN1` [2-pyrrolidinone], the “sucrose preference (depression-like behavior)” value in the test on SNI-treated rats [7] (setting [9]) is “increased sucrose; also recorded: return of sucrose preference to near control (painless) levels”. For the same compound, the “currents of GluA2-lacking AMPA receptors (CPAR currents)” value in test [3] (in vitro, Nishizaki et al. 2002) was “specifically increase CPAR currents; also recorded: specifically increase the currents of GluA2-lacking AMPA receptors”. In the test with SNI-treated rats [6] (SNI-treated rats), the sensory hypersensitivity entry is listed as “did not have any effect; also recorded: unaltered”.
For the compound `CC(C)S(=O)(=O)NC[C@H](C)c1ccc(-c2ccc(C#N)cc2)cc1` [LY451646], the antidepressant effects result in test [1] is “antidepressant effects”. In test [3], the “potentiation of CPARs and calcium impermeable AMPA receptors” value was “potentiate both CPARs and calcium impermeable AMPA receptors”.
